According to patent US7750017B2, “Heterocycles” (Bayer Schering Pharma Aktiengesellschaft, priority 2004, dated 2010):
pIC50: −log10 of the molar value. Where a name gives a salt, the structure may show the parent alone.

Columns and labels:
[1] = system: BT474 [human breast carcinoma, overexpressing HER2 (ErbB2)]; assay: In vitro tumor cell proliferation assay (Cell Titer-Glo luminescent cell viability), BT474 cells; type: cell-based; details: BT-474, 72 h, 72 hours of drug exposure, Cell Titer-Glo readout, read-out: IC50, anti-proliferative activity in BT474 cells
Excerpt: (§1) The utility of the compounds of the present invention can be illustrated, for example, by their activity in vitro in the in vitro tumor cell proliferation assay described below. The link between activity in tumor cell proliferation assays in vitro and anti-tumor activity in the clinical setting has been very well established in the art.
(§2) The following assay is one of the methods by which compound activity relating to treatment of the disorders identified herein can be determined.
(§3) The tumor cell proliferation assay used to test the compounds of the present invention involves a readout called Cell Titer-Glow® Luminescent Cell Viability Assay developed by Promega® (Cunningham, B A “A Growing Issue: Cell Proliferation Assays, Modern kits ease quantification of cell growth” The Scientist 2001, 15(13), 26, and Crouch, S P et al., “The use of ATP bioluminescence as a measure of cell proliferation and cytotoxicity” Journal of Immunological Methods 1993, 160, 81-88), that measures inhibition of cell proliferation. Generation of a luminescent signal corresponds to the amount of ATP present, which is directly proportional to the number of metabolically active (proliferating) cells.
(§4) A431 cells [human epidermoid carcinoma, ATCC # […], overexpressing HER1 (EGFR, ErbB1)] and BT474 [human breast carcinoma, ATCC # CRL-1555, overexpressing HER2 (ErbB2)] were plated at a density of 2.5×10^3 cells/well in 96 well black-clear bottom tissue culture plates in RPMI media with 10% Fetal Bovine Serum and incubated at 37° C. Twenty-four hours later, test compounds are added at a final concentration range from as high 100 μm to as low 64 pM depend on the activities of the tested compounds in serial dilutions at a final DMSO concentration of 0.1%. Cells were incubated for 72 hours at 37° C. in complete growth media after addition of the test compound. After 72 hours of drug exposure, the plates were equilibrated to room temperature for approximately 30 min. Then, using a Promega Cell Titer Glo Luminescent® assay kit, lysis buffer containing 100 microliters of the enzyme luciferase and its substrate, luciferin mixture, was added to each well. The plates were mixed for 2 min on orbital shaker to ensure cell lysis and incubated for 10 min at room temperature to stabilize luminescence signal. The samples were read on VICTOR 2 using Luminescence protocol, and analyzed with Analyze5 software to generate IC50 values.

[2] = system: A431 cells [human epidermoid carcinoma, overexpressing HER1 (EGFR, ErbB1)]; assay: In vitro tumor cell proliferation assay (Cell Titer-Glo luminescent cell viability), A431 cells; type: cell-based; details: A-431, 72 h, 72 hours of drug exposure, Cell Titer-Glo readout, read-out: IC50, anti-proliferative activity in A431 cells
Excerpt: as §1, §2, §3, §4

In the case of COC1CCN(CCc2ccc3c(c2)sc2ncnc(Nc4ccc(OCc5cccc(F)c5)c(Cl)c4)c23)C1 (centres unmarked) [Example 20, N-{3-chloro-4-[(3-fluorobenzyl)oxy]phenyl}-7-[2-(3-methoxypyrrolidin-1-yl)ethyl][1] benzothieno[2,3-d]pyrimidin-4-amine], the pIC50 [1] was at least 6.30 and the pIC50 [2] was at least 5.30.

With CN1CCN(CCc2ccc3c(c2)sc2ncnc(Nc4ccc(OCc5cccc(F)c5)c(Cl)c4)c23)CC1 [Example 21, N-{3-chloro-4-[(3-fluorobenzyl)oxy]phenyl}-7-[2-(4-methylpiperazin-1-yl)ethyl][1] benzothieno[2,3-d]pyrimidin-4-amine] the pIC50 [1] was at least 6.30 and the pIC50 [2] was at least 5.30.

With OCCNCCc1ccc2c(c1)sc1ncnc(Nc3ccc(OCc4cccc(F)c4)c(Cl)c3)c12 [Example 22, 2-({2-[4-({3-chloro-4-[(3-fluorobenzyl)oxy]phenyl}amino) [1]benzothieno [2,3-d]pyrimidin-7-yl]ethyl}amino)ethanol] the pIC50 [1] was at least 6.30 and the pIC50 [2] was at least 5.30.

With Fc1cccc(COc2ccc(Nc3ncnc4sc5cc(CCN6CCNCC6)ccc5c34)cc2Cl)c1 [Example 23, N-{3-chloro-4-[(3-fluorobenzyl)oxy]phenyl}-7-(2-piperazin-1-ylethyl)[1]benzothieno [2,3-d]pyrimidin-4-amine] the pIC50 [1] was at least 6.30 and the pIC50 [2] was at least 5.30.

Compound CN(C)[C@H]1CCN(CCc2ccc3c(c2)sc2ncnc(Nc4ccc(OCc5cccc(F)c5)c(Cl)c4)c23)C1 [Example 24, N-{3-chloro-4-[(3-fluorobenzyl)oxy]phenyl}-7-{2-[3-(dimethylamino)pyrrolidin-1-yl]ethyl}[1]benzothieno[2,3-d] pyrimidin-4-amine] has a pIC50 [1] of at least 5.30 and a pIC50 [2] of at least 5.30.

OC[C@@H](O)c1ccc2c(c1)sc1ncnc(Nc3ccc(OCc4cccc(F)c4)c(Cl)c3)c12 [Example 26, (1S)-1-[4-({3-chloro-4-[(3-fluorobenzyl)oxy]phenyl}amino)[1]benzothieno[2,3-d]pyrimidin-7-yl]ethane-1,2-diol] gave a pIC50 [1] of at least 6.30 and a pIC50 [2] of at least 5.30.

In the case of OC[C@H](O)c1ccc2c(c1)sc1ncnc(Nc3ccc(OCc4cccc(F)c4)c(Cl)c3)c12 [Example 27, (1R)-1-[4-({3-chloro-4-[(3-fluorobenzyl)oxy]phenyl}amino) [1]benzothieno[2,3-d]pyrimidin-7-yl]ethane-1,2-diol], the pIC50 [1] was at least 6.30 and the pIC50 [2] was at least 5.30.

Compound O=C(Cc1ccc2c(c1)sc1ncnc(Nc3ccc(OCc4cccc(F)c4)c(Cl)c3)c12)N1CCOCC1 [Example 28, 2-{4-[3-Chloro-4-(3-fluoro-benzyloxy)-phenylamino]-benzo[4,5]thieno[2,3-]pyrimidin-7-yl}-1-morpholin-4-yl-ethanone] has a pIC50 [1] of at least 6.30 and a pIC50 [2] of at least 5.30.

O=C(Cc1ccc2c(c1)sc1ncnc(Nc3ccc(OCc4cccc(F)c4)c(Cl)c3)c12)NCCOCCO [Example 29, 2-[4-({3-chloro-4-[(3-fluorobenzyl)oxy]phenyl}amino)[1]benzothieno[2,3-d]pyrimidin-7-yl]-N-[2-(2-hydroxyethoxy)ethyl] acetamide] was tested, and the pIC50 [1] was at least 6.30 and the pIC50 [2] was at least 5.30.

Work on O=C(Cc1ccc2c(c1)sc1ncnc(Nc3ccc(OCc4cccc(F)c4)c(Cl)c3)c12)NCCN1CCOCC1 [Example 30, 2-[4-({3-chloro-4-[(3-fluorobenzyl)oxy]phenyl}amino)[1]benzothieno[2,3-d]pyrimidin-7-yl]-N-(2-morpholin-4-ylethyl)acetamide] yielded a pIC50 [1] of at least 6.30 and a pIC50 [2] of at least 5.30.

O=C(Cc1ccc2c(c1)sc1ncnc(Nc3ccc(OCc4cccc(F)c4)c(Cl)c3)c12)N1CCNCC1 [Example 31, N-{3-chloro-4-[(3-fluorobenzyl)oxy]phenyl}-7-(2-oxo-2-piperazin-1-ylethyl)[1] benzothieno[2,3-d]pyrimidin-4-amine hydrochloride] was tested, and the pIC50 [1] was at least 6.30 and the pIC50 [2] was at least 5.30.

With CN1CCN(C(=O)Cc2ccc3c(c2)sc2ncnc(Nc4ccc(OCc5cccc(F)c5)c(Cl)c4)c23)CC1 [Example 32, N-{3-chloro-4-[(3-fluorobenzyl)oxy]phenyl}-7-[2-(4-methylpiperazin-1-yl)-2-oxoethyl][1]benzothieno[2,3-d] pyrimidin-4-amine] the pIC50 [1] was at least 6.30 and the pIC50 [2] was at least 5.30.

With O=C(Cc1ccc2c(c1)sc1ncnc(Nc3ccc(OCc4cccc(F)c4)c(Cl)c3)c12)NCC1CCCNC1 (centres unmarked) [Example 33, 2-[4-({3-chloro-4-[(3-fluorobenzyl)oxy]phenyl}amino) [1]benzothieno[2,3-d]pyrimidin-7-yl]-N-(piperidin-3-ylmethyl) acetamide hydrochloride] the pIC50 [1] was at least 6.30 and the pIC50 [2] was at least 4.30.

Oc1ccc2c(c1)sc1ncnc(Nc3ccc(OCc4cccc(F)c4)c(Cl)c3)c12 [Example 34, 4-({3-chloro-4-[(3-fluorobenzyl)oxy]phenyl}amino)[1]benzothieno[2,3-d]pyrimidin-7-ol] was tested, and the pIC50 [1] was at least 6.30 and the pIC50 [2] was at least 4.30.

With OC[C@H](O)COc1ccc2c(c1)sc1ncnc(Nc3ccc(OCc4cccc(F)c4)c(Cl)c3)c12 [Example 36, (2S)-3-{[4-({3-chloro-4-[(3-fluorobenzyl)oxy]phenyl}amino)[1]benzothieno[2,3-d]pyrimidin-7-yl]oxy}propane-1,2-diol] the pIC50 [1] was at least 6.30 and the pIC50 [2] was at least 5.30.

With Fc1cccc(COc2ccc(Nc3ncnc4sc5cc(OCCN6CCOCC6)ccc5c34)cc2Cl)c1 [Example 38, N-{3-chloro-4-[(3-fluorobenzyl)oxy]phenyl}-7-(2-morpholin-4-ylethoxy) [1]benzothieno[2,3-d]pyrimidin-4-amine] the pIC50 [1] was at least 6.30 and the pIC50 [2] was at least 5.30.

Fc1cccc(COc2ccc(Nc3ncnc4sc5cc(OCCCN6CCOCC6)ccc5c34)cc2Cl)c1 [Example 39, N-{3-chloro-4-[(3-fluorobenzyl)oxy]phenyl}-7-(3-morpholin-4-ylpropoxy)[1] benzothieno[2,3-d]pyrimidin-4-amine] gave a pIC50 [1] of at least 6.30 and a pIC50 [2] of at least 5.30.

In the case of Fc1cccc(COc2ccc(Nc3ncnc4sc5cc(OCCn6cccc6)ccc5c34)cc2Cl)c1 [Example 40, N-{3-chloro-4-[(3-fluorobenzyl)oxy]phenyl}-7-[2-(1H-pyrrol-1-yl)ethoxy][1] benzothieno[2,3-d]pyrimidin-4-amine], the pIC50 [1] was at least 5.30 and the pIC50 [2] was at least 4.30.

Fc1cccc(COc2ccc(Nc3ncnc4sc5cc(OCCN6CCCC6)ccc5c34)cc2Cl)c1 [Example 41, N-{3-chloro-4-[(3-fluorobenzyl)oxy]phenyl}-7-(2-pyrrolidin-1-ylethoxy)[1] benzothieno[2,3-d]pyrimidin-4-amine] was tested, and the pIC50 [1] was at least 6.30 and the pIC50 [2] was at least 5.30.

For CCOC(=O)C(Oc1ccc2c(c1)sc1ncnc(Nc3ccc(OCc4cccc(F)c4)c(Cl)c3)c12)C(=O)OCC [Example 42, diethyl {[4-({3-chloro-4-[(3-fluorobenzyl)oxy]phenyl}amino)[1]benzothieno[2,3-d]pyrimidin-7-yl]oxy}malonate trifluoroacetate], the pIC50 [1] was at least 5.30 and the pIC50 [2] was at least 4.30.

OCC(CO)Oc1ccc2c(c1)sc1ncnc(Nc3ccc(OCc4cccc(F)c4)c(Cl)c3)c12 [Example 43, 2-{[4-({3-chloro-4-[(3-fluorobenzyl)oxy]phenyl}amino) [1]benzothieno[2,3-d]pyrimidin-7-yl]oxy}propane-1,3-diol trifluoroacetate (salt)] gave a pIC50 [1] of at least 6.30 and a pIC50 [2] of at least 4.30.

In the case of Fc1cccc(COc2ccc(Nc3ncnc4sc5cc(N6CCOCC6)ccc5c34)cc2Cl)c1 [Example 44, [3-Chloro-4-(3-fluoro-benzyloxy)-phenyl]-(7-morpholin-4-yl-benzo[4,5]thieno[2,3-d]pyrimidin-4-yl)-amine], the pIC50 [1] was at least 6.30 and the pIC50 [2] was at least 4.30.

With CCOC(=O)C(C(=O)OCC)c1ccc2c(c1)sc1ncnc(Nc3ccc(OCc4cccc(F)c4)c(Cl)c3)c12 [Example 45, 2-{4-[3-Chloro-4-(3-fluoro-benzyloxy)-phenylamino]-benzo[4,5]thieno[2,3-d]pyrimidin-7-yl}-malonic acid diethyl ester] the pIC50 [1] was at least 5.30 and the pIC50 [2] was at least 4.30.

Compound OCC(CO)c1ccc2c(c1)sc1ncnc(Nc3ccc(OCc4cccc(F)c4)c(Cl)c3)c12 [Example 46, 2-{4-[3-Chloro-4-(3-fluoro-benzyloxy)-phenylamino]-benzo[4,5]thieno[2,3-]pyrimidin-7-yl}-propane-1,3-diol] has a pIC50 [1] of at least 6.30 and a pIC50 [2] of at least 5.30.

COC(=O)/C=C/c1ccc2c(c1)sc1ncnc(Nc3ccc(OCc4cccc(F)c4)c(Cl)c3)c12 [Example 47, methyl (2E)-3-[4-({3-chloro-4-[(3-fluorobenzyl)oxy]phenyl}amino)[1]benzothieno[2,3-d]pyrimidin-7-yl]acrylate] was tested, and the pIC50 [1] was at least 5.30 and the pIC50 [2] was at least 5.30.
